The results in this text go back to patent US20020114804A1, “A METHOD OF TREATING INFECTION OF SUTURES AND PROSTHETIC DEVICES” (priority 1996, published 2002).

Holding throughout (type): cell-based, human
Assay [1] concerns PMNs. Briefly: Exclusion of fluorescein-conjugated F(ab)2 anti-fibrin from zones of contact between PMNs and fibrin. From the text:
Therefore, the exclusion of fluorescein-conjugated F(ab)2 anti-fibrin from zones of contact between LTB4- or IL-8-stimulated PMNs and fibrin was used as a measure of the interaction of these cells with fibrin-coated surfaces. About 50% of fibrin-adherent LTB4- or IL-8-stimulated PMNs formed adhesive zones that excluded this high molecular weight (100 kDa.) probe. As expected from studies with Rh-PEG (FIG. 8), >99% of fibrin-adherent TNF- or fMLP-stimulated PMNs excluded fluorescein-conjugated F(ab)2 anti-fibrin from their zones of contact with fibrin (data not shown).

Assay [2] deals with monocytes. The experiment in a line: Monocyte migration through Matrigel or Matrigel/tenascin coated filters. Particulars: Matrigel alone. From the text: Mononuclear cells were isolated by centrifugation of heparinized human blood on Ficoll-Hypaque gradients as described (65, 66). The mononuclear cell fraction was resuspended in RMPI 1640 medium supplemented with 10% pooled human serum or autologous serum and used immediately for monocyte migration studies. For some experiments, monocytes were obtained by centrifugation of whole blood or of white blood cells concentrated from a unit of blood (leukopak), on Nycodenz gradients as described (39). More than 90% of the nucleated cells obtained by this Nycodenz method were monocytes, as assessed by their ability to phagocytose IgG-coated red blood cells.
(§1) Cultured monocytes were prepared by allowing 10^7 total mononuclear cells, suspended in 10 ml of RMPI 1640 medium supplemented with 10% pooled human serum (1640+HS), or 10% autologous serum (1640+AS), to adhere to Falcon T-150 tissue culture Petri dishes for 2 h at 37° C. Non-adherent cells were removed by washing, leaving an adherent cell population consisting of greater than 98% monocytes as measured by their capacity to phagocytose IgG coated sheep red blood cells. For migration studies, monocytes were maintained in culture for 24 h in RPMI 1640+HS or AS, and detached from the dishes by gentle pipetting of 10 ml of ice cold phosphate buffered saline (without Ca^2+ or Mg^2+) containing 1.0 mM EDTA. The cells recovered were resuspended in RPMI-1640+HS as described (65).
(§2) Cell culture inserts containing polyethylene terephthalate filters, 8-μm pore size (Becton-Dickinson), were overlaid with 0.1 ml of Matrigel (20-25 μg protein/filter) (Collaborative Research, Bedford, Mass.), and incubated at room temperature until they dried. These Matrigel-coated filters were washed with phosphate buffered saline containing 1.0 mM Mg^2+ and 1.0 mM Ca^2+ (PBS). 0.1 ml of a PBS solution (pH 7.2) containing the indicated amount of purified chick brain tenascin was added to some of the inserts. The filters were incubated at room temperature until they dried. These protein-coated filters were washed again with PBS and used within 12 h for cell migration studies. To prepare collagen I-coated inserts, filters were coated with rat tail collagen I (ICN Biochemicals, Costa, Mesa, Calif.) (400 μg/ml in PBS), by adding 0.1 ml of this solution to an insert and incubating the inserts at room temperature for 24 h. Some of these collagen I-coated filters were then incubated with tenascin as described above.
Monocytes: Cell culture inserts were placed in 16 mm wells containing 0.5 mls of RPMI-1640+HS or AS in the presence or absence of a chemoattractant. 0.5 ml of RPMI-1640+HS or AS serum containing between 2-10×10^5 mononuclear phagocytes was added to the upper chamber of the inserts and the inserts were placed in a humidified CO2 incubator at 37° C. After 24 h the medium in the lower chamber was recovered and its cell content assayed using either a Coulter counter or a hemocytometer. […] Cell counts reported are the average number of cells recovered from the medium in the lower compartment of chemotaxis chambers. Over 90% of the cells in the lower chamber were identified as monocytes based on their morphology, their capacity to phagocytose IgG coated sheep red cells, and their staining with fluorescein-conjugated anti α,β monoclonal antibody (Oncogene Sciences, Uniondale, N.Y.). Unless otherwise indicated, all values are the average of duplicate samples run in parallel in a representative experiment. Each experiment was repeated at least three times with similar results.

In assay [3] the test system is PMNs. Briefly: PMN migration through Matrigel or Matrigel/tenascin coated filters. As to conditions: Matrigel alone. The method, then:
Polymorphonuclear leukocytes (PMN), were prepared as described (7) from heparinized human blood by sedimentation on Ficoll-Hypaque gradients. Contaminating red blood cells were removed by hypotonic lysis. The purity of PMN isolated by this method was >95% as determined by Wright-Giemsa staining.
as §2
PMN: 250 μl of PBS [supplemented with 5.5 mM glucose and 0.1% human serum albumin (HSA) (PBSG-HSA)] containing 1×10^6 PMNs was placed in the upper compartment of each insert. 250 μl of PBSG-HSA with or without chemoattractant, as indicated, was added to the bottom compartment. The inserts were incubated for about 4 h at 37° C. in a humidified atmosphere containing 95% air/5% CO2. […] The medium in the lower compartment was collected and its content of PMN determined using a Coulter Counter, as described in Example 1.

Assay [4] deals with monocytes. The experiment in a line: Monocyte migration through collagen I coated inserts. Particulars: collagen I alone, 24 h. The protocol:
as §1
Cell culture inserts containing polyethylene terephthalate filters, 8-μm pore size (Becton-Dickinson), were overlaid with 0.1 ml of Matrigel (20-25 μg protein/filter) (Collaborative Research, Bedford, Mass.), and incubated at room temperature until they dried. These Matrigel-coated filters were washed with phosphate buffered saline containing 1.0 mM Mg^2+ and 1.0 mM Ca^2+ (PBS). 0.1 ml of a PBS solution (pH 7.2) containing the indicated amount of purified chick brain tenascin was added to some of the inserts. The filters were incubated at room temperature until they dried. […]

In the case of `CCCCC/C=C\C[C@@H](O)/C=C/C=C/C=C\[C@@H](O)CCCC(=O)O` [LTB4, leukotriene B4], the “Fibrin-adherent PMNs that excluded fluorescein-conjugated F(ab)2 anti-fibrin (100 kDa)” value in the assay with PMNs [1] was “About 50%”. Moreover, in the assay on monocytes [2], the “Cultured monocytes that migrated through Matrigel-coated inserts” value is ~15% and the “Freshly isolated human monocytes that migrated through Matrigel-coated inserts” value is “About 20%”. In addition, the “PMNs that migrated through Matrigel-coated inserts” value in the assay with PMNs [3] is given as ~10%. Also, in the assay with monocytes [4], the “Monocytes that migrated through inserts coated with collagen I” value worked out at 18%.
